Laboratory results from ChEMBL document CHEMBL5257112, “Discovery of 4-oxo-4,5-dihydropyrazolo[1,5-a]quinoxaline-7-carboxamide derivatives as PI3Kα inhibitors via virtual screening and docking-based structure optimization” (Bioorg Med Chem, 2023).

Tests used:
[1] = target: Phosphatidylinositol 4,5-bisphosphate 3-kinase catalytic subunit alpha isoform (Homo sapiens, UniProt P42336); test: Inhibition of PI3Kalpha (unknown origin) using PIP2:PS as substrate preincubated for 1 hr followed by ATP and substate addition and measured after 1 hr by ADP-glo reagent based assay
[2] = target: T1, Phosphatidylinositol 4,5-bisphosphate 3-kinase catalytic subunit delta isoform (Homo sapiens, UniProt O00329); test: Inhibition of PI3Kdelta (unknown origin) using PIP2:PS as substrate preincubated for 1 hr followed by ATP and substate addition and measured after 1 hr by ADP-glo reagent based assay
T1 sequence (O00329 whole entry): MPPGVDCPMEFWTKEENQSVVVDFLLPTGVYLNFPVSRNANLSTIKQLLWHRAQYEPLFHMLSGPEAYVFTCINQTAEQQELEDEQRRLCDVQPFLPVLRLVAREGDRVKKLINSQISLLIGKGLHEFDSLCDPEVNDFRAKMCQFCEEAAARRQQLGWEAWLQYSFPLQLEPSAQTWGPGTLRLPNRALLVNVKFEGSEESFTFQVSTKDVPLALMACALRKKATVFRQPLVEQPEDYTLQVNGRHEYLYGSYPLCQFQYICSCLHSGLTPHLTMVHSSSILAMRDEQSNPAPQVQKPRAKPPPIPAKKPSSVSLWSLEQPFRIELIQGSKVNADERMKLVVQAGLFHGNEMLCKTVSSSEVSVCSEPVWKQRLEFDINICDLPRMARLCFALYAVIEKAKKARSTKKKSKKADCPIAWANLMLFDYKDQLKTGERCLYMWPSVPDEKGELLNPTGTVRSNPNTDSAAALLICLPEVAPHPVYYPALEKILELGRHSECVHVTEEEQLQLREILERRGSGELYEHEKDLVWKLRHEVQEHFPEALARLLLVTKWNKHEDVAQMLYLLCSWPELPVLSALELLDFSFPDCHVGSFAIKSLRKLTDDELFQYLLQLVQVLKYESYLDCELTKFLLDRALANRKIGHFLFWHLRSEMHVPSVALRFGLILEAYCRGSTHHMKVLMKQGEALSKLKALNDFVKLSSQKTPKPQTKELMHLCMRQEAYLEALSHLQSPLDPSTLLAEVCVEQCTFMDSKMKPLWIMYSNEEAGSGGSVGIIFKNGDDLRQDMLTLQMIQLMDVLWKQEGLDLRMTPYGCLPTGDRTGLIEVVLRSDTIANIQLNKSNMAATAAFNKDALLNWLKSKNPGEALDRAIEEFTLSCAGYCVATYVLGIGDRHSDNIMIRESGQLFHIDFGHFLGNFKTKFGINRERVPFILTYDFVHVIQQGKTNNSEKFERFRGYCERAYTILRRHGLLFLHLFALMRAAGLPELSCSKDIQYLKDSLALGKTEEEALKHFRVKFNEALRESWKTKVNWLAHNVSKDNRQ

[3] = target: Phosphatidylinositol 4,5-bisphosphate 3-kinase catalytic subunit beta isoform (Homo sapiens, UniProt P42338); test: Inhibition of PI3Kbeta (unknown origin) using PIP2:PS as substrate preincubated for 1 hr followed by ATP and substate addition and measured after 1 hr by ADP-glo reagent based assay
[4] = target: Phosphatidylinositol 4,5-bisphosphate 3-kinase catalytic subunit gamma isoform (Homo sapiens, UniProt P48736); test: Inhibition of PI3Kgamma (unknown origin) using PIP2:PS as substrate preincubated for 1 hr followed by ATP and substate addition and measured after 1 hr by ADP-glo reagent based assay
Kasumi 1 = test: Antiproliferative activity against human Kasumi 1 cells assessed as cell growth inhibition incubated for 72 hrs by MTT assay; format: functional, cell-based; settings: Kasumi 1, 72 h
T47D = test: Antiproliferative activity against human T47D cells expressing PIK3CA mutant assessed as cell growth inhibition incubated for 72 hrs by MTT assay; format: functional, cell-based
[5] = Half life in mouse at 5 mg/kg, po measured after 24 hrs by LC/MS/MS analysis; format: ADME, organism-based; settings: in vivo
[6] = Half life in mouse at 1 mg/kg, iv measured after 24 hrs by LC/MS/MS analysis; format: ADME, organism-based; settings: in vivo
[7] = Cmax in mouse at 5 mg/kg, po measured after 24 hrs by LC/MS/MS analysis; format: ADME, organism-based; design: time 24 hrs, dose 5 mg/kg, route po; settings: in vivo
[8] = Cmax in mouse at 1 mg/kg, iv measured after 24 hrs by LC/MS/MS analysis; format: ADME, organism-based; design: time 24 hrs, dose 1 mg/kg, route iv; settings: in vivo
[9] = AUC(0 to t) in mouse at 5 mg/kg, po measured after 24 hrs by LC/MS/MS analysis; format: ADME, organism-based; design: dose 5 mg/kg, time 24 hrs, route po; settings: in vivo
[10] = AUC(0 to t) in mouse at 1 mg/kg, iv measured after 24 hrs by LC/MS/MS analysis; format: ADME, organism-based; design: dose 1 mg/kg, time 24 hrs, route iv; settings: in vivo
[11] = Volume of distribution in mouse at 5 mg/kg, po measured after 24 hrs by LC/MS/MS analysis; format: ADME, organism-based; settings: in vivo
[12] = Volume of distribution in mouse at 1 mg/kg, iv measured after 24 hrs by LC/MS/MS analysis; format: ADME, organism-based; settings: in vivo
[13] = Clearance in mouse at 5 mg/kg, po measured after 24 hrs by LC/MS/MS analysis; format: ADME, organism-based; settings: in vivo
[14] = Clearance in mouse at 1 mg/kg, iv measured after 24 hrs by LC/MS/MS analysis; format: ADME, organism-based; settings: in vivo
[15] = Oral bioavailability in mouse at 5 mg/kg measured after 24 hrs by LC/MS/MS analysis; format: ADME, organism-based; settings: in vivo
[16] = Inhibition of PI3K/AKT/mTOR signaling pathway in human T47D cells assessed as reduction in Akt phosphorylation at S473 residue preincubated for 1 hr followed by recombinant human insulin-like growth factor 1 stimulation by Western blot analysis; format: cell-based; settings: dose 0.01-10 µM

Sequence of Phosphatidylinositol 4,5-bisphosphate 3-kinase catalytic subunit alpha isoform (P42336 whole entry, canonical isoform): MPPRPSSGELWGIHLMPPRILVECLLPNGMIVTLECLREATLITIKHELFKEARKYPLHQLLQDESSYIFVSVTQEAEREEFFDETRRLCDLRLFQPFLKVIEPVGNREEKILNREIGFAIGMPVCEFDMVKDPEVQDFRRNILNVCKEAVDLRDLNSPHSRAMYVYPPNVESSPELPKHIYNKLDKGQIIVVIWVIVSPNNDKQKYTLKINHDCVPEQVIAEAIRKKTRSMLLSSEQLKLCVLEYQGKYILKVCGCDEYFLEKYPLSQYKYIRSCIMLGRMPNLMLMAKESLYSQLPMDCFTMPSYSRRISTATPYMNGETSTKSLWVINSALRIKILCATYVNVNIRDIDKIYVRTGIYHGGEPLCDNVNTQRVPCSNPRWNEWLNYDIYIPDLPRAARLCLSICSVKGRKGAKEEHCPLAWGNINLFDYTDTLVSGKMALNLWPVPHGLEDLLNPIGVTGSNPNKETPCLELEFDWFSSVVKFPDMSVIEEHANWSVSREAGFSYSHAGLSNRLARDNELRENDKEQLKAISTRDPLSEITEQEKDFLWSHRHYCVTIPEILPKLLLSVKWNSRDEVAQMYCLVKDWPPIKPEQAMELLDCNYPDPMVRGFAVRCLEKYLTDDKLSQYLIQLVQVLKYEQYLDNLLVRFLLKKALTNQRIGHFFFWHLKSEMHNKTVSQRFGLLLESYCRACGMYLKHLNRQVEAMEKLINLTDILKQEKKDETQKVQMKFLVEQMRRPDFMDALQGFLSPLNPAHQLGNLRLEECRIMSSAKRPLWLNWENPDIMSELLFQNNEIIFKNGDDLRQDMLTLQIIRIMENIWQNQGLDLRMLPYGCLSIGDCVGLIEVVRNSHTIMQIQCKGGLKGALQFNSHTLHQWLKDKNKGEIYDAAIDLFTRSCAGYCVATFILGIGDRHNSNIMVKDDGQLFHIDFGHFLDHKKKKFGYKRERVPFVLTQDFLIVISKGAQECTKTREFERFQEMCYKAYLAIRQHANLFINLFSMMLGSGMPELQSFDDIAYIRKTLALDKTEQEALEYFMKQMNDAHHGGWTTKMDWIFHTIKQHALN
Sequence of Phosphatidylinositol 4,5-bisphosphate 3-kinase catalytic subunit gamma isoform (P48736 whole entry, canonical isoform): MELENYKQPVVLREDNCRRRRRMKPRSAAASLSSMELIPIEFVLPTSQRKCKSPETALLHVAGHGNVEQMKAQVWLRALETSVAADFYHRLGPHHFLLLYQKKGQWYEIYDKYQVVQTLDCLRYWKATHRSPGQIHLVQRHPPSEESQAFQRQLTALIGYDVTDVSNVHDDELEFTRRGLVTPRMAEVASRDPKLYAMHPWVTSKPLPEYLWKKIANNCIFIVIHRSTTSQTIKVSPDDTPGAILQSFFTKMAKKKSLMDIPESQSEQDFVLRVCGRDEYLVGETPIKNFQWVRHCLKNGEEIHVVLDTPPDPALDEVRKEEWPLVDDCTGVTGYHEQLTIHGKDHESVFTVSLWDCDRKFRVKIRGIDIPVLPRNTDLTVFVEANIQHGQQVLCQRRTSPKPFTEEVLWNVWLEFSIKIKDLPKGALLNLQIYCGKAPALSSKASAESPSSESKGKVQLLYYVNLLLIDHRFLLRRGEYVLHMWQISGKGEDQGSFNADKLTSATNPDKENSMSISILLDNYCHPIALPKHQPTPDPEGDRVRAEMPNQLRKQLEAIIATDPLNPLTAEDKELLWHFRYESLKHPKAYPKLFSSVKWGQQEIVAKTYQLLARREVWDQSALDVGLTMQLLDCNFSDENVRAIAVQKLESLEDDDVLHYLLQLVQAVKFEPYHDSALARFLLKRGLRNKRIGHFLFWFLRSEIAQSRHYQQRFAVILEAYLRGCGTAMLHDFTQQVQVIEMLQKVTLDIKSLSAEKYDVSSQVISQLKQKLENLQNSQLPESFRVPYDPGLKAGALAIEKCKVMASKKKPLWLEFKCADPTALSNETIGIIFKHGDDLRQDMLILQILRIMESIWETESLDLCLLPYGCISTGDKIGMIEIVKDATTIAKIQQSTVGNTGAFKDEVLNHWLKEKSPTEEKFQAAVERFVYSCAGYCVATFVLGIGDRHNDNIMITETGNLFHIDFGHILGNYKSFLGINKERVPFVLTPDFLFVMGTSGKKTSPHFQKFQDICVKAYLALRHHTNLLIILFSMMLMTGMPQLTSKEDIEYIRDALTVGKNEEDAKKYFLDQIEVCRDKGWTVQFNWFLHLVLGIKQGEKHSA
Sequence of Phosphatidylinositol 4,5-bisphosphate 3-kinase catalytic subunit beta isoform (P42338 whole entry, canonical isoform): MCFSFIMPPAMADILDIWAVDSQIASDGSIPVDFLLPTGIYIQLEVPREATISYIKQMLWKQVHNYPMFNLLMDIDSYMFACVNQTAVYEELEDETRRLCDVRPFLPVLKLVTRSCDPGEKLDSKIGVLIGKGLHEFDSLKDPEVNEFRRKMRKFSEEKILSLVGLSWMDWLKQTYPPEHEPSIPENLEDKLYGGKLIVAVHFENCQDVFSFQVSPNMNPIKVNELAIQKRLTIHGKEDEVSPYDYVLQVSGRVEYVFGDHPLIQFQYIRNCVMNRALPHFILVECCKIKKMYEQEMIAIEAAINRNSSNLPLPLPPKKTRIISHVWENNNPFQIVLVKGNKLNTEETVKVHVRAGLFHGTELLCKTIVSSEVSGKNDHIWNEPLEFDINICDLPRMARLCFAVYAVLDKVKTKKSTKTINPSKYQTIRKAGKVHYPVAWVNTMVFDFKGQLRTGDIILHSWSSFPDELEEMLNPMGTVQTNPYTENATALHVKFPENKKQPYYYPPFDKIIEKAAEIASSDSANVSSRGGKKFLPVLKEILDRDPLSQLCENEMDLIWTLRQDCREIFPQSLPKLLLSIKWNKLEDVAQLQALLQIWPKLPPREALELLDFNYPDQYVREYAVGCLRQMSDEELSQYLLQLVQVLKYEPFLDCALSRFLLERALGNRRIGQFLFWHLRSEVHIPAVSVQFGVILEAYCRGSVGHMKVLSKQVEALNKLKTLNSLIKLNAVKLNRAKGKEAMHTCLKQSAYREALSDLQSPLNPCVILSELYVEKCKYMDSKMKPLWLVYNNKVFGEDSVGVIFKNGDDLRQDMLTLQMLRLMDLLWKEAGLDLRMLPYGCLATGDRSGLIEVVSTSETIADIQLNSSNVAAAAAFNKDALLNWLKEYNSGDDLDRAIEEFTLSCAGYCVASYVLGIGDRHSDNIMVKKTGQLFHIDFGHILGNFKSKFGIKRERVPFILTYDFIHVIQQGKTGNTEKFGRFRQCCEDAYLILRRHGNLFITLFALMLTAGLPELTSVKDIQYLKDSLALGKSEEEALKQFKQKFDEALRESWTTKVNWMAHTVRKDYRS

| IC50 [1] | Structure (SMILES) | further results |
| --- | --- | --- |
| 1.59 µM | CCn1c(=O)c2ccnn2c2ccc(C(=O)NCc3cncnc3)cc21 |  |
| > 20 µM | CCn1c(=O)c2cccn2c2ccc(C(=O)NCc3cccnc3)cc21 |  |
| 3.63 µM | CCn1c(=O)c2cnc(C)n2c2ccc(C(=O)NCc3cccnc3)cc21 |  |
| 2 µM | CCCCn1c(=O)c2ccnn2c2ccc(C(=O)NCc3cccnc3)cc21 |  |
| > 20 µM | CCn1c(=O)c2ccnn2c2cc(NC(C)=O)c(C(=O)NCc3cncnc3)cc21 | IC50 [2]: > 20 µM; IC50 [3]: > 20 µM; IC50 [4]: > 20 µM |
| 4.76 µM | CCn1c(=O)c2ccnn2c2ccc(C(=O)NCc3cnccn3)cc21 |  |
| 3.61 µM | CCNC(=O)c1ccc2c(c1)n(Cc1ccccc1)c(=O)c1ccnn12 |  |
| 11.4 µM | CCn1c(=O)c2cc(C)nn2c2ccc(C(=O)NCc3cccnc3)cc21 |  |
| > 20 µM | CCn1c(=O)c2ccnn2c2cc(NC)c(C(=O)NCc3cccnc3)cc21 | IC50 [2]: > 20 µM; IC50 [3]: 4.89 µM; IC50 [4]: > 20 µM |
| 5.47 µM | CCn1c(=O)c2ccnn2c2ccc(C(=O)NCc3cnn(C)c3)cc21 |  |
| 0.24 µM | CCn1c(=O)c2ccnn2c2cc(N)c(C(=O)NCc3cncnc3)cc21 | IC50 [2]: 4.1 µM; IC50 [3]: > 10 µM; IC50 [4]: 0.83 µM; IC50 (Kasumi 1): 1.64 µM; IC50 (T47D): 1.82 µM; half-life [5]: 4.97 h; half-life [6]: 2.52 h; Cmax [7]: 863 ng/mL; Cmax [8]: 567 ng/mL; AUC(0-t) at 24 h [9]: 3290 ng·h/mL; AUC(0-t) at 24 h [10]: 717 ng·h/mL; Vd [11]: 6.36 L/kg; Vd [12]: 3.13 L/kg; CL/F [13]: 15.7 mL/min/kg; clearance [14]: 20.5 mL/min/kg; bioavailability [15]: 91.8%; inhibition [16]: Dose-Dependent Effect |
| 13.9 µM | CCn1c(=O)c2ccnn2c2ccc(C(=O)NCCc3cccnc3)cc21 |  |
| 2.65 µM | O=C(NCc1cccnc1)c1ccc2c(c1)n(CC1CC1)c(=O)c1ccnn12 |  |
| > 20 µM | CCn1c(=O)c2cc(C(C)C)nn2c2ccc(C(=O)NCc3cccnc3)cc21 |  |
| 4.51 µM | CCn1c(=O)c2ccnn2c2ccc(C(=O)NCc3cccnc3C)cc21 |  |
| 2.65 µM | CCn1c(=O)c2ccnn2c2ccc(C(=O)NCc3cncc(C)c3)cc21 |  |
| > 20 µM | CCn1c(=O)c2nccn2c2ccc(C(=O)NCc3cccnc3)cc21 |  |
| > 20 µM | CS(=O)(=O)c1ccc(Cn2c(=O)c3ccnn3c3ccc(C(=O)NCc4cccnc4)cc32)cc1 |  |
| 2.86 µM | CCn1c(=O)c2ccnn2c2ccc(C(=O)NCc3ccccn3)cc21 |  |
| 0.87 µM | CCn1c(=O)c2ccnn2c2cc(N)c(C(=O)NCc3cccnc3)cc21 | IC50 [2]: 5.74 µM; IC50 [3]: 0.72 µM; IC50 [4]: 1.4 µM; IC50 (Kasumi 1): 4.38 µM; Cmax [7]: < 50 ng/mL; Cmax [8]: < 50 ng/mL; AUC(0-t) at 24 h [9]: < 100 ng·h/mL; AUC(0-t) at 24 h [10]: < 100 ng·h/mL |
| 3.52 µM | CCn1c(=O)c2ccnn2c2ccc(C(=O)NCc3cnccc3C)cc21 |  |
| 9.3 µM | CCNC(=O)c1ccc2c(c1)n(CC)c(=O)c1ccnn12 |  |
| 3.52 µM | CCn1c(=O)c2ccnn2c2ccc(C(=O)NCc3cccnc3)cc21 |  |
| > 20 µM | CC(C)(C)c1ccc(Cn2c(=O)c3ccnn3c3ccc(C(=O)NCc4cccnc4)cc32)cc1 |  |
| 2.86 µM | CCn1c(=O)c2ccnn2c2ccc(C(=O)NCc3ccncc3)cc21 |  |
| > 20 µM | CCn1c(=O)c2ccnn2c2cc(N(C)C)c(C(=O)NCc3cccnc3)cc21 | IC50 [2]: > 20 µM; IC50 [3]: 15 µM; IC50 [4]: > 20 µM |
| 3.62 µM | CCn1c(=O)c2ccnn2c2ccc(C(=O)NCc3ccc(C)nc3)cc21 |  |
| 6.43 µM | CCNC(=O)c1ccc2c(c1)n(CCOC)c(=O)c1ccnn12 |  |

Further lines, the compound ahead of its results:

| Structure (SMILES) | IC50 [1] | further results |
| --- | --- | --- |
| CCn1c(=O)c2ccnn2c2ccc(C(=O)N3CCN(C)CC3)cc21 | > 20 µM |  |
| CCN1C(=O)C2CCCCN2c2ccc(C(=O)NCc3cccnc3)cc21 (centres undefined) | > 20 µM |  |
| CNC(=O)c1ccc2c(c1)n(CCCN(C)C1CCCCC1)c(=O)c1ccnn12 | 11 µM |  |
| CCN1C(=O)N2CCN=C2c2ccc(C(=O)NCc3cccnc3)cc21 | > 20 µM |  |
| CCn1c(=O)c2ccnn2c2ccc(C(=O)NCCN3CCOCC3)cc21 | 10.9 µM |  |
| Cn1c(=O)c2ccnn2c2ccc(C(=O)NCCN3CCOCC3)cc21 | 12.3 µM |  |
| CCN1C(=O)[C@@H]2CCCN2c2ccc(C(=O)NCc3cccnc3)cc21 | > 20 µM |  |
| CCn1c(=O)c2ccnn2c2ccc(C(=O)NCCCN3CCOCC3)cc21 | 4.18 µM |  |
| CCN1C(=O)N2CCCN=C2c2ccc(C(=O)NCc3cccnc3)cc21 | > 20 µM |  |
| Cc1nc(NC(=O)N2CCC[C@H]2C(N)=O)sc1-c1ccnc(C(C)(C)C(F)(F)F)c1 [ALPELISIB] |  | IC50 (Kasumi 1): 0.44 µM; IC50 (T47D): 0.1 µM |
| O=C(c1ccc2c(c1)[nH]c(=O)c1ccnn12)N1CCN(C2CCCC2)CC1 | > 20 µM |  |
| CCN1C(=O)N2CC(C)(C)CN=C2c2ccc(C(=O)NCc3cccnc3)cc21 | > 20 µM |  |
| CCN1C(=O)[C@H]2CCCN2c2ccc(C(=O)NCc3cccnc3)cc21 | > 20 µM |  |
| O=C(NCCN1CCOCC1)c1ccc2c(c1)n(Cc1ccc(F)cc1)c(=O)c1ccnn12 | 9.62 µM |  |
| CCn1c(=O)c2ccnn2c2ccc(C(=O)N3CCN(c4ccccc4)CC3)cc21 | > 20 µM |  |
| CN1CCC(N2CCN(C(=O)c3ccc4c(c3)[nH]c(=O)c3ccnn34)CC2)CC1 | > 20 µM |  |
| O=C(NCCN1CCOCC1)c1ccc2c(c1)n(Cc1ccccc1)c(=O)c1ccnn12 | 10.3 µM |  |
| CCNC(=O)c1ccc2c(c1)n(CCCN(C)C)c(=O)c1ccnn12 | 4.26 µM |  |
| CCNC(=O)c1ccc2c(c1)n(CCN1CCCCC1)c(=O)c1ccnn12 | 5.25 µM |  |
| O=C(NCc1cccnc1)c1ccc2c(c1)n(Cc1ccc(OC(F)(F)F)cc1)c(=O)c1ccnn12 | > 20 µM |  |
| O=C(NCc1cccnc1)c1ccc2c(c1)n(Cc1ccc(C(F)(F)F)cc1)c(=O)c1ccnn12 | > 20 µM |  |
